Key:
[1] = In vitro assays of genotoxic potential
[2] = Metabolic profiling of plasma after in vivo administration, dog
[3] = system: human hepatocyte cultures; experiment: Metabolism in human hepatocyte cultures in vitro; assay type: in vitro ADME
[4] = biological target: T1, human mineralocorticoid receptor (MR) (Homo sapiens, UniProt P08235); experiment: Nuclear hormone receptor functional modulation assay (GRE-luciferase, HEK293), MR; assay type: cell-based
T1 construct: expressed in transfected cells; host or cells: HEK293, transient transfection (Fugene), CMV promoter plasmid
T1 sequence (P08235 1-984): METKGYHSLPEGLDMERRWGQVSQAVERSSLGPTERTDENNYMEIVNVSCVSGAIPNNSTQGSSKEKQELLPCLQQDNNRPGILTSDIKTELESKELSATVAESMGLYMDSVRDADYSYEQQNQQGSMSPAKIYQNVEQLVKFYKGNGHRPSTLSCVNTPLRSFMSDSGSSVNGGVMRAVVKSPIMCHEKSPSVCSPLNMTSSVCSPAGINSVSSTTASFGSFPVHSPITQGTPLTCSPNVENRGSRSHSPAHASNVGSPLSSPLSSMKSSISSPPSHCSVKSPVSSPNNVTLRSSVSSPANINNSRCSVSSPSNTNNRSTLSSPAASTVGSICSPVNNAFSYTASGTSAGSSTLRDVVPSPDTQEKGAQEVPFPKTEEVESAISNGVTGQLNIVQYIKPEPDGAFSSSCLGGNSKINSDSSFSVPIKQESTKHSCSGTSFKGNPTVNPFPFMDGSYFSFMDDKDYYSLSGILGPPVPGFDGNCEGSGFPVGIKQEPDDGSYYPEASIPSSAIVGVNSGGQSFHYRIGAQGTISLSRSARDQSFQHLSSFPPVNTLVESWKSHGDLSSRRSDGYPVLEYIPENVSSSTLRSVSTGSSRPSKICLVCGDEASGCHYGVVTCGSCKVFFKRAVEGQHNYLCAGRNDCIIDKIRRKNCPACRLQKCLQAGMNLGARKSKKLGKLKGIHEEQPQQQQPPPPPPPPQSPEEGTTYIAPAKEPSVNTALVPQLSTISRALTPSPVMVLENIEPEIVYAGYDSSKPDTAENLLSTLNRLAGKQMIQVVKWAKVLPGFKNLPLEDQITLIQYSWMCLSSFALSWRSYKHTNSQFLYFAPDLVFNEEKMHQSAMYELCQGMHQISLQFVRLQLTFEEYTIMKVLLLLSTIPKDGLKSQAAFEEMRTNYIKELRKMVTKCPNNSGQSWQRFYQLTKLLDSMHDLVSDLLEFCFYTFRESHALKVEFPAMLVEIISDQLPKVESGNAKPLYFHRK
Description: (§1) The solvents, reagents, and ligands employed in the functional assay are readily available from commercial sources, or can be prepared by one of ordinary skill in the art.
(§2) Human embryonic kidney HEK293 cells are transfected with steroid hormone receptor and reporter gene plasmids using Fugene™ (Roche Diganostics) transfection reagent. Briefly, the reporter plasmid containing two copies of probasin ARE (androgen response element 5′GGTTCTTGGAGTACT3′ (SEQ ID NO:1)) and TK(thymidine kinase) promoter upstream of the luciferase reporter cDNA, is transfected into HEK293 cells with a plasmid constitutively expressing human androgen receptor (AR) using viral CMV(cytomegalovirus) promoter. The reporter plasmid containing two copies of GRE (glucocorticoid response element 5′TGTACAGGATGTTCT′3 (SEQ ID NO:2)) and TK promoter upstream of the luciferase reporter cDNA is transfected with a plasmid constitutively expressing either human glucocorticoid receptor (GR), human mineralocorticoid receptor (MR), or human progesterone receptor (PR) using viral CMV promoter. Cells are transfected in T150 cm flasks in DMEM media with 5% charcoal-stripped Fetal Bovine Serum (FBS). […] In the antagonist mode for the assays, low concentrations of agonist for each respective receptor are added to the media (0.25 nM dexamethasone for GR, 0.3 nM of methyltrienolone for AR, 0.05 nM of promegestone for PR and 0.05 nM aldosterone for MR), and the ability of test compound to antagonize the agonist response is determined. After 24 hours of incubation with test compounds, cells are lysed and luciferase activity is determined using standard techniques.
(§3) Data are fitted to a four parameter-fit logistic curve fit to determine EC50 values. […] IC50 values may be determined similarly using antagonist mode assay data. Percent inhibitions may also be determined relative to the response in the presence of agonist alone, as described above.

[5] = Metabolic profiling of plasma after in vivo administration, monkey
[6] = In vivo studies of genotoxic potential
[7] = biological target: T2, human progesterone receptor (PR) (Homo sapiens, UniProt P06401); experiment: Nuclear hormone receptor functional modulation assay (GRE-luciferase, HEK293), PR; assay type: cell-based
T2 construct: expressed in transfected cells; host or cells: HEK293, transient transfection (Fugene), CMV promoter plasmid
T2 sequence (P06401 1-933): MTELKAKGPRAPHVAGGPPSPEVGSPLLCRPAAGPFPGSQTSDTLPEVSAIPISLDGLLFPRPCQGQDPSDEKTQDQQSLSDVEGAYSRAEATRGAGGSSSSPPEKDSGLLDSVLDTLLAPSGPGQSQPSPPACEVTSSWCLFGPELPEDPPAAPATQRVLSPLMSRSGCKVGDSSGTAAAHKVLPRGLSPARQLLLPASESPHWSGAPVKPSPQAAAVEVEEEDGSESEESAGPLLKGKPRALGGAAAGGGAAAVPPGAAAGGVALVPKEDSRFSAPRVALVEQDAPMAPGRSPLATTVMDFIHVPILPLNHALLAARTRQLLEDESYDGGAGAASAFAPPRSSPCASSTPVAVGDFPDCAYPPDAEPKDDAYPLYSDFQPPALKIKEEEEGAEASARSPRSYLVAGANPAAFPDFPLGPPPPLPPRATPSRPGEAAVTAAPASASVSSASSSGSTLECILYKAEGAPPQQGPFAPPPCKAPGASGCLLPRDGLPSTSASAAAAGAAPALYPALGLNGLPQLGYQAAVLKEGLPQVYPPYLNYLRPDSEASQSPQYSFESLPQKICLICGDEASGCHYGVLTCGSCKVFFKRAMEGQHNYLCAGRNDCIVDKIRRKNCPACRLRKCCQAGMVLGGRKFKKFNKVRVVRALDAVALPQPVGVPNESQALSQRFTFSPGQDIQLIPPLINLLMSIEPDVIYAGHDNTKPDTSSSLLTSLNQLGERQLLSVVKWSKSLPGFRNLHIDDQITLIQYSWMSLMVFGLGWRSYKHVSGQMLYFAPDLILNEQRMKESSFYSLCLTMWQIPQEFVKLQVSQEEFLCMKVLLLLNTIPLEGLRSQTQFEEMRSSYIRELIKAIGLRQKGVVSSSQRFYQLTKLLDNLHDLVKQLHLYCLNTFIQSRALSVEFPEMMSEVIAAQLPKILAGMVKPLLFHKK
Description: as §1, §2, §3

[8] = agonist mode, activating transcription
[9] = functional modulation, in words

circulating entity in plasma [2]: major circulating entity
metabolism when incubated with human hepatocyte cultures [3]: only minor metabolism
EC50 [4, 8]: > 10 µM
modulation of gene expression mediated by MR [4, 9]: only limited activity
MR % Eff. ([4]; percent efficacy at 10 μM relative to 30 nM aldosterone, mean of 3): 8.5%
metabolites in plasma [5]: no metabolites detected
circulating entity in plasma ([5]; after in vivo administration): major circulating entity
EC50 [7, 8]: > 10 µM
modulation of gene expression mediated by PR [7, 9]: only limited activity
PR % Eff. ([7]; percent efficacy at 10 μM relative to 30 nM promegestone, mean of 3): 40.1%
SMILES: CC/C(=C1\c2ccc(Cl)cc2OCc2ncccc21)c1cccc(NS(C)(=O)=O)c1 [Compound (I), (E)-N-{3-[1-(8-Chloro-11H-10-oxa-1-aza-dibenzo[a,d]cyclohepten-5-ylidene)-propyl]-phenyl}-methanesulfonamide]
genotoxic potential [1]: non-genotoxic
genotoxic potential [6]: non-genotoxic

Source: patent US8101760B2, “Glucocorticoid receptor modulator and methods of use” (Eli Lilly and Company, priority 2007, dated 2012)
